One data set relates to C8161 melanoma cells. Kind of data set: CFSE cell proliferation assay, C8161. The data set is classed as cell-based, human. To be noted: effect greater than in A375. The protocol: For staining with CFSE (Molecular Probes, Eugene, Oreg.)., 1×10^7/ml cells were suspended in PBS and incubated at 37° C. for 5 min with the 10 μM of CFSE. Stained cells were cultured with medium alone or with inhibitor for 24, 48, and 72 hours, fixed and analyzed by a FACS Calibur cytometer (Becton Dickinson, San Jose, Calif.).

Another data set deals with normal human melanocytes. The data set is described as follows: Cell viability (MTT), melanocytes. The data set is classed as cell-based. The following applies: Melanocyte, Melonocyte, 72 hours, read-out: IC50 of INT2-31, cell viability. The protocol:
(§1) Cell viability (MTT) and CFSE Proliferation assay: Cells were plated in 96-well plates and let adhere overnight. After cell treatment, cell viability was measured by 3-(4,5-dimethylthiazol-2-yl)-2,5-diphenyl tetrazolium bromide (MTT) assay (CellTiter 96® Aqueous, Promega, Madison, Wis.).
Cell viability and detachment assays: After cells were treated with siRNA transfection, cell viability was measured by 3-(4,5-dimethylthiazol2-yl)-2,5-diphenyl tetrazolium bromide (MTT) assay (CellTiter 96® AQueous, Promega, Madison, Wis.). Briefly, 20 μl of the tetrazolium compound was added to each well. The cells were then incubated at 37° C. for 1 h. The plate was read at 490 nm with a plate reader to determine the viability. In detachment assays, detached and attached cells were harvested separately and counted in a hemocytometer. The percentage of detachment was calculated by dividing the number of detached cells by the total number of cells. Apoptosis assays: After treatment, attached and detached cells were collected, counted and prepared for terminal uridine deoxynucleotidyl transferase (TUNEL) assay by utilizing an APO-BRDU kit (BD Pharmingen, San Diego, Calif.) according to the manufacturer's instructions. Stained cells were analyzed with a fluorescence-activated cell sorting-Calibur flow cytometer (BD Biosciences). […] Apoptotic cells were also analyzed by Hoechst staining. […]

Data set [1] deals with KYSE70 esophageal cancer cells. The data set is described as follows: Cell viability (MTT), KYSE70. The data set is classed as cell-based. The protocol:
as §1
Cell viability and detachment assays: After cells were treated with siRNA transfection, cell viability was measured by 3-(4,5-dimethylthiazol2-yl)-2,5-diphenyl tetrazolium bromide (MTT) assay (CellTiter 96® AQueous, Promega, Madison, Wis.). Briefly, 20 μl of the tetrazolium compound was added to each well. The cells were then incubated at 37° C. for 1 h. The plate was read at 490 nm with a plate reader to determine the viability. In detachment assays, detached and attached cells were harvested separately and counted in a hemocytometer. The percentage of detachment was calculated by dividing the number of detached cells by the total number of cells. Apoptosis assays: After treatment, attached and detached cells were collected, counted and prepared for terminal uridine deoxynucleotidyl transferase (TUNEL) assay by utilizing an APO-BRDU kit (BD Pharmingen, San Diego, Calif.) according to the manufacturer's instructions. Stained cells were analyzed with a fluorescence-activated cell sorting-Calibur flow cytometer (BD Biosciences). Calculation of the percentage of apoptotic cells in the sample was completed with CellQuest software (BD Biosciences). Apoptotic cells were also analyzed by Hoechst staining. Hoechst 33342 ([…]) was added to the fixed cells and the specimens were mounted on glass coverslips. The slides were viewed under the Zeiss microscope for apoptotic nuclei. The percent of apoptotic cells was calculated as the ratio of apoptotic cells to total number of cells.
In addition, the effect of INT2-31 on cell viability of esophageal, pancreatic and breast cancer cell lines was analyzed and the IC50 value for each cell line was determined, as shown in Table 1. […] Similar to melanoma results, INT2-31 inhibits viability more in cancer cells compared to normal cells. Sensitivity of the cells to INT2-31 varied and directly correlated to the FAK and IGF-1R expression level of the cells.

Data set [2] has as its system Miapaca-2 orthotopic xenografts. The data set is described as follows: Orthotopic pancreatic xenograft, Miapaca-2. The data set is classed as in vivo, mice. An excerpt: For the orthotopic model of pancreatic cancer, the University of Florida IACUC approved the following protocol (IACUC Study #2000801506). The pancreatic cancer cell lines, Mia paca-2 and Panc-1 cells were stably transfected using luciferase-RFP (red fluorescent protein) reporter gene for in vivo imaging of the xenografts. Following expansion and sorting of RFP positive cells, cells were expanded in culture and 5×10^6 tumor cells were implanted into the pancreas of 20 mice. For intra-pancreatic implantation of cells, mice were anesthetized with Isoflurane using the ACS provided and maintained rodent anesthesia machine. Under sterille surgical conditions, via 1.0 cm incision of the skin, abdominal wall and peritonium, the spleen was retracted and cells were injected in […] into the tail of the pancreas using a 29-gauge needle. The abdominal wall and peritoneum was sutured using 5.0 absorbable surgical sutures and the skin was closed with medical glue (dermabond). Postoperative analgesia was 0.05 mg/kg of buprenorphine subcutaneously per 8-12 hours postoperatively.
Mice were hand restrained prior to intraperitoneal injections. Mice were euthanized 6 weeks after tumor innoculation and tumor and tissue collected. As described below, mice were imaged weekly with the IVIS lumina imager and tumor size was estimated by the bioluminescent signal. […]

These results are taken from patent US20120107323A1, “KINASE PROTEIN BINDING INHIBITORS” (University of Florida, priority 2009, published 2012).

The IC50 is the concentration at which inhibition is half-maximal. `CSc1ncnc2c1ccn2C1O[C@H](COP(=O)(O)O)[C@@H](O)[C@H]1O` (stereo partly drawn) [INT2-31, 4-(Methylthio)-7-(5-O-phosphono-D-ribofuranosyl)-{7H-Pyrrolo[2,3-d]pyrimidine}]: the “cell proliferation (CSFE)” value in the data set with C8161 melanoma cells is “inhibited cell proliferation”. Moreover, the half-maximal inhibitory concentration (IC50) with normal human melanocytes amounted to 97.3 µM; in data set [1] (Homo sapiens, KYSE-70, KYSE70, 72 hours, read-out: IC50 of INT2-31, cell viability), 4.6 µM. Further, the “effect of combination with 5-FU on cell viability” value in data set [1] (KYSE 70, 0.5 and 1 μM INT2-31) is “synergistic effects”. The “sensitivity of cells to single-agent treatment” value in data set [1] (KYSE 70, 72 hours) is given as “sensitive”. The “growth of the orthotopic pancreatic xenografts” value in data set [2] (Miapaca2, daily intraperitoneal 50 mg/kg, 21 days) is listed as “sufficiently reduced the growth”. For the same molecule, in data set [2] (both orthotopic models), the “side effects as measured by body weights and appearances of the animals” value is on record as “without any significant side effects”.
